Assay type in all cases: functional, cell-based
The target of test [1] is T1, ATP-binding cassette sub-family C member 2 (Homo sapiens, UniProt Q92887). The test is described as follows: TP_TRANSPORTER: inhibition of Vinblastine transepithelial transport (basal to apical)(Quinidine: 15 uM) in MRP2-expressing MDCK cells.
The target in test [2] is T1, ATP-binding cassette sub-family C member 2. The test is described as follows: TP_TRANSPORTER: inhibition of Vinblastine transepithelial transport (basal to apical) in MRP2-expressing MDCK cells.
For test [3] the target is unchanged. The test is described as follows: TP_TRANSPORTER: inhibition of Vinblastine transepithelial transport (basal to apical)(GF120918: 12 uM) in MRP2-expressing MDCK cells.

One may read the Ki as the equilibrium dissociation constant of an inhibitor or competing ligand from its target.

T1 sequence (Q92887 whole entry): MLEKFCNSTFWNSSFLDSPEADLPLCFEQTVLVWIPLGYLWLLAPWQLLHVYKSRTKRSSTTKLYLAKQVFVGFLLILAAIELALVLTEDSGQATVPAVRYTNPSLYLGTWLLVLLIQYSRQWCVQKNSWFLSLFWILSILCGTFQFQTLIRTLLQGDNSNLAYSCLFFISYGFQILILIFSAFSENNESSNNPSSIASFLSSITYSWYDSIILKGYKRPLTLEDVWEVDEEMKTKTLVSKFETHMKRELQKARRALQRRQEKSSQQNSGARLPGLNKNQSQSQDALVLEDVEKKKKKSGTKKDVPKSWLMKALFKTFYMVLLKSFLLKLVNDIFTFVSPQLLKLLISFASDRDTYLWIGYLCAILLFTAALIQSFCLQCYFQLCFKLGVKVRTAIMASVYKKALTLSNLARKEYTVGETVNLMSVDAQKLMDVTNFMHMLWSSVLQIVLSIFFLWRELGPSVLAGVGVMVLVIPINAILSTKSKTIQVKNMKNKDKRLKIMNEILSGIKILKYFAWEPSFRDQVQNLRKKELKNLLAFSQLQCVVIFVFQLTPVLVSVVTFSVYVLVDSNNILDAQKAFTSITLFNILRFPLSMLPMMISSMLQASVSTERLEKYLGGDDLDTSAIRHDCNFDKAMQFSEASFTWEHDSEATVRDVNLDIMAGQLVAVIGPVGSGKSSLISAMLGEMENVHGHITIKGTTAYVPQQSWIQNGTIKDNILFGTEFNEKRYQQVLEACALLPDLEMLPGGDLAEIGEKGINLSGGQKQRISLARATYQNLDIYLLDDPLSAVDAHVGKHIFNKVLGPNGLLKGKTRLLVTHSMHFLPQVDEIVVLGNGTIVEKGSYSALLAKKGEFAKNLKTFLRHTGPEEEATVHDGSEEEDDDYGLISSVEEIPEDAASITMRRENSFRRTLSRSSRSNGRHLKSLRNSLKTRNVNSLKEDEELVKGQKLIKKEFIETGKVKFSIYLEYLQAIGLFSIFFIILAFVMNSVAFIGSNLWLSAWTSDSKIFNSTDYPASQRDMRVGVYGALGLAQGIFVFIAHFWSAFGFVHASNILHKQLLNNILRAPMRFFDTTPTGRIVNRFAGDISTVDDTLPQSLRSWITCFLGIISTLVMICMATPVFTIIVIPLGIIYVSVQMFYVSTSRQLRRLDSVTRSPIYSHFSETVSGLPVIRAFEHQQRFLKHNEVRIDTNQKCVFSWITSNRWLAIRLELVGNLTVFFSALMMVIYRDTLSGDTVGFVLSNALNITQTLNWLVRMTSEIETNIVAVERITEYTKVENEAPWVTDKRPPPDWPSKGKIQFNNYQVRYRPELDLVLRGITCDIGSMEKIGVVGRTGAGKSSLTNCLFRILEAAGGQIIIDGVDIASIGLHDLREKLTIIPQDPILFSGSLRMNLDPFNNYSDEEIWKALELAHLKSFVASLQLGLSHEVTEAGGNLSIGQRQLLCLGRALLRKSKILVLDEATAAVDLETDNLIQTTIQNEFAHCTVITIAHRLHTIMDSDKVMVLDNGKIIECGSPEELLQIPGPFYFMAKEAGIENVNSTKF

For `C=C[C@H]1CN2CC[C@H]1C[C@@H]2[C@@H](O)c1ccnc2ccc(OC)cc12` [QUINIDINE], the Ki entry in test [1] was “is not an inhibitor [Ki=No inhibition]”.

The compound `COC(=O)[C@H]1[C@H]2C[C@@H]3c4[nH]c5cc(OC)ccc5c4CCN3C[C@H]2C[C@@H](OC(=O)c2cc(OC)c(OC)c(OC)c2)[C@@H]1OC` [RESERPINE] registered an inhibition constant (Ki) in test [2] of 295 µM.

The compound `COc1cccc2c1C(=O)c1c(O)c3c(c(O)c1C2=O)C[C@@](O)(C(C)=O)C[C@@H]3O[C@H]1C[C@H](N)[C@H](O)[C@H](C)O1` [DAUNORUBICIN] showed an inhibition constant Ki in test [2] of 49.4 µM.

For the compound `COc1cc2c(cc1OC)CN(CCc1ccc(NC(=O)c3cccc4c(=O)c5cccc(OC)c5[nH]c34)cc1)CC2.Cl` [ELACRIDAR HYDROCHLORIDE], the Ki entry in test [3] is “is not an inhibitor [Ki=No inhibition]”.

`CC[C@]1(O)C[C@H]2CN(CCc3c([nH]c4ccccc34)[C@@](C(=O)OC)(c3cc4c(cc3OC)N(C=O)[C@H]3[C@@](O)(C(=O)OC)[C@H](OC(C)=O)[C@]5(CC)C=CCN6CC[C@]43[C@@H]65)C2)C1` [VINCRISTINE] displayed an inhibition constant (Ki) in test [2] of 802 µM.

For `COc1cc([C@@H]2c3cc4c(cc3[C@@H](O[C@@H]3O[C@@H]5CO[C@@H](C)O[C@H]5[C@H](O)[C@H]3O)[C@H]3COC(=O)[C@H]23)OCO4)cc(OC)c1O` [ETOPOSIDE], the Ki in test [2] was 756 µM.

In test [2], `CN(C)C(=O)CCSC(SCCC(=O)O)c1cccc(/C=C/c2ccc3ccc(Cl)cc3n2)c1` (configuration not stated) [MK-571] showed a Ki of 26.4 µM.

Source of the values: ChEMBL document CHEMBL2073914, “Are MDCK cells transfected with the human MRP2 gene a good model of the human intestinal mucosa?” (Pharm Res, 2002).
